Assay [1] has as its target Carbonic anhydrase 14 (Homo sapiens, UniProt Q9ULX7).
Description: Inhibition of human CA14 by stopped-flow CO2 hydration assay
The target in assay [2] is Carbonic anhydrase 5A, mitochondrial (Homo sapiens, UniProt P35218).
Description: Inhibition of human CA5A by stopped-flow CO2 hydration assay
Assay [3] deals with Carbonic anhydrase 13 (Mus musculus, UniProt Q9D6N1).
Description: Inhibition of mouse CA13 by stopped-flow CO2 hydration assay
Assay [4] concerns the target Carbonic anhydrase 5B, mitochondrial (Homo sapiens, UniProt Q9Y2D0).
Description: Inhibition of human CA5B by stopped-flow CO2 hydration assay
In assay [5] the target is Carbonic anhydrase 4 (Homo sapiens, UniProt P22748).
Description: Inhibition of human CA4 by stopped-flow CO2 hydration assay
In assay [6] the target is Carbonic anhydrase 2 (Homo sapiens, UniProt P00918).
Description: Inhibition of human CA2 by stopped-flow CO2 hydration assay
For assay [7], the target named is Carbonic anhydrase 12 (Homo sapiens, UniProt O43570).
Carbonic anhydrase 12, sequence (O43570 whole entry): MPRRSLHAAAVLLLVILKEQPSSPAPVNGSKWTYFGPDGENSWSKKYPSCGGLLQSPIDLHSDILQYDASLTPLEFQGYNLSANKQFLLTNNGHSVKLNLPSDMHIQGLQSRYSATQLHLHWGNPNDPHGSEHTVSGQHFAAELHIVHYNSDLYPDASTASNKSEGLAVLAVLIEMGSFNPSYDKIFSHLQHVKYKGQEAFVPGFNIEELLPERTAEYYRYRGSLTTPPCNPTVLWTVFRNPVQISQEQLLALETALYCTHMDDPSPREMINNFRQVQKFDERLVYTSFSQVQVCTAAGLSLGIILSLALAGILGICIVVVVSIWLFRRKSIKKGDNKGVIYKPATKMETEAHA
Description: Inhibition of human CA12 by stopped-flow CO2 hydration assay
Assay [8] addresses Carbonic anhydrase 9 (Homo sapiens, UniProt Q16790).
Description: Inhibition of human CA9 by stopped-flow CO2 hydration assay
Assay [9] deals with Carbonic anhydrase 3 (Homo sapiens, UniProt P07451).
Carbonic anhydrase 3, sequence (P07451 whole entry): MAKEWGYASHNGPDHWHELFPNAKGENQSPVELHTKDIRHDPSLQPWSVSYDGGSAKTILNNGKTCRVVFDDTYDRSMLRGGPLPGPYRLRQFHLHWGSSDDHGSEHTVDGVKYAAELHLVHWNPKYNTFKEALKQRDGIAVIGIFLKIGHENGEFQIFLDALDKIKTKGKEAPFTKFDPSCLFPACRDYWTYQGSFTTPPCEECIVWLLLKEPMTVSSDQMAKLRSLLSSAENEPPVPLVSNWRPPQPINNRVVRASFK
Description: Inhibition of human CA3 by stopped-flow CO2 hydration assay
Assay [10] addresses Carbonic anhydrase 7 (Homo sapiens, UniProt P43166).
Description: Inhibition of human CA7 by stopped-flow CO2 hydration assay
Assay [11] deals with Carbonic anhydrase 1 (Homo sapiens, UniProt P00915).
Carbonic anhydrase 1, sequence (P00915 whole entry): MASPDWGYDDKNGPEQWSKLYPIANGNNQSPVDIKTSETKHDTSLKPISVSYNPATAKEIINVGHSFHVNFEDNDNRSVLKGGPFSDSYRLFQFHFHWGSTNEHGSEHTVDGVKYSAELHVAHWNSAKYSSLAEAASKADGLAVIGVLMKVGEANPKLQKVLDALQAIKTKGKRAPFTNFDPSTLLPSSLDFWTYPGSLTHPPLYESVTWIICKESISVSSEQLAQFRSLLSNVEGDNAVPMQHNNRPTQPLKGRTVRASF
Description: Inhibition of human CA1 by stopped-flow CO2 hydration assay
Assay [12] deals with Carbonic anhydrase 6 (Homo sapiens, UniProt P23280).
Carbonic anhydrase 6, sequence (P23280 whole entry): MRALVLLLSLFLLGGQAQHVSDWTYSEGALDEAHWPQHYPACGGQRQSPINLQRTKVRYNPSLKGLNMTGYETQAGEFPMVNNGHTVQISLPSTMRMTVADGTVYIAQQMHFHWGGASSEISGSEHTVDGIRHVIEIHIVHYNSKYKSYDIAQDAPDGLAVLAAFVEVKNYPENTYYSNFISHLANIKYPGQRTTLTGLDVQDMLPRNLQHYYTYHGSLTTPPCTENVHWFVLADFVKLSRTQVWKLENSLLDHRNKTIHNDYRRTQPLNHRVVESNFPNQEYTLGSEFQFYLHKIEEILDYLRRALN
Description: Inhibition of human CA6 by stopped-flow CO2 hydration assay

Carbonic anhydrase 4, sequence (P22748 whole entry): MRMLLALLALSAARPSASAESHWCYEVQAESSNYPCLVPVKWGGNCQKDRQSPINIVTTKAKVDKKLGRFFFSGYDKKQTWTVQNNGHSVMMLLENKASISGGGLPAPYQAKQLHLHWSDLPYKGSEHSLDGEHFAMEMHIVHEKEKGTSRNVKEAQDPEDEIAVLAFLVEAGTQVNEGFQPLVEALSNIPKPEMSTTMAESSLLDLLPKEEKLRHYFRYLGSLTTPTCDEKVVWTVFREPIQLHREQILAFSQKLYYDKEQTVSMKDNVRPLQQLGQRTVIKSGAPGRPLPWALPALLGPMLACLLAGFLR
Carbonic anhydrase 14, sequence (Q9ULX7 whole entry): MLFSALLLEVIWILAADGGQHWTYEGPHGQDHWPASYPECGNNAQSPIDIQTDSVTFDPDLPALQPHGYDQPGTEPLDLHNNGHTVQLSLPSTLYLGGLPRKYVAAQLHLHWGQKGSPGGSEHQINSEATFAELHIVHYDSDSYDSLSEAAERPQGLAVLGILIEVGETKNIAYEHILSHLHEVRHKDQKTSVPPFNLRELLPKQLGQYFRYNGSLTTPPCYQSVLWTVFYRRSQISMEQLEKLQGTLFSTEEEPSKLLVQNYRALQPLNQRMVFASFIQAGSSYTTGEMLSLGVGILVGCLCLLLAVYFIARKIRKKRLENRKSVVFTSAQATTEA
Carbonic anhydrase 13, sequence (Q9D6N1 whole entry): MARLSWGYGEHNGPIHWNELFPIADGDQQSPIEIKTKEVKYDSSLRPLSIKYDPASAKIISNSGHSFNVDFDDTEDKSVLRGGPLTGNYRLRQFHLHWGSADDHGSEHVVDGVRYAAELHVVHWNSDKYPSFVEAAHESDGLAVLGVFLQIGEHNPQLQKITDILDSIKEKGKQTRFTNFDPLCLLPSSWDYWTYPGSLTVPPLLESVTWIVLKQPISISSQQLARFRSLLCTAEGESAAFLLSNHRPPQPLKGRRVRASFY
Carbonic anhydrase 7, sequence (P43166 whole entry): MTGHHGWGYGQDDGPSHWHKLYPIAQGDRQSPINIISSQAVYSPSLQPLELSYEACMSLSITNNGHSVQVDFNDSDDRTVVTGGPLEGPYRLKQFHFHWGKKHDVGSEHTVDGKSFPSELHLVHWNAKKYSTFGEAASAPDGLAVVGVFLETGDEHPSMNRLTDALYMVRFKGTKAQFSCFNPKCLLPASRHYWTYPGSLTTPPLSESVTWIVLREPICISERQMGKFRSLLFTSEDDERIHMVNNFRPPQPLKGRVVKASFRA
Carbonic anhydrase 5A, mitochondrial, sequence (P35218 whole entry): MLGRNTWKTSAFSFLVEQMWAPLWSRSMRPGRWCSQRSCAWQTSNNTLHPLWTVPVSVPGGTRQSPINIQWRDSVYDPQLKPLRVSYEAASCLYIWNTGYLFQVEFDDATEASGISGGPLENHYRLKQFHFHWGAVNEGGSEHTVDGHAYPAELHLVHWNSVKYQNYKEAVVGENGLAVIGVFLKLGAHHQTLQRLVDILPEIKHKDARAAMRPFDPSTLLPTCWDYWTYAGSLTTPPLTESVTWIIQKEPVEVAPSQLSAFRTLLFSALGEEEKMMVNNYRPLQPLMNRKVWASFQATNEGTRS
Carbonic anhydrase 5B, mitochondrial, sequence (Q9Y2D0 whole entry): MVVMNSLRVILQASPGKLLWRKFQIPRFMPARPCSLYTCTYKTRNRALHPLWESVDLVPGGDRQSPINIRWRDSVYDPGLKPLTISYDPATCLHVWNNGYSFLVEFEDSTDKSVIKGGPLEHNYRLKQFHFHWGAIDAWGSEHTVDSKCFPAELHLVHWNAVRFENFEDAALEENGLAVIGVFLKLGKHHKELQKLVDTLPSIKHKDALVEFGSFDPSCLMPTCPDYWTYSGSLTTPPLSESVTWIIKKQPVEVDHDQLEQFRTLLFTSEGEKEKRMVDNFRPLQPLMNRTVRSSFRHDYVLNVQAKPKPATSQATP

In the case of `O=C(O)/C=C/c1ccc(O)cc1` [COUMARIC ACID], the Ki in assay [1] was 6.68 µM; in assay [2], 5.96 µM; in assay [3] it was 10.1 µM; in [4], 7.76 µM; in assay [5], 9.6 µM; in assay [6], 0.98 µM. Further, the Ki in assay [7] is 8.01 µM; in assay [8], 5.33 µM; in assay [9], 7.57 µM; in [10] it was 5.23 µM; in assay [11], 1.07 µM; in assay [12], 6.72 µM.

`O=c1oc2c(O)c(O)cc3c(=O)oc4c(O)c(O)cc1c4c23` [ELLAGIC ACID]: the Ki worked out at 8.91 µM in assay [1]; 7.59 µM in assay [2]; 10.3 µM in [3]; 12.7 µM in assay [4]; 9.08 µM in assay [5]; 10.1 µM in assay [7]. Besides, the Ki in [8] is 9.37 µM; in assay [9], 10.5 µM; in [10] it was 6.32 µM; in assay [11] it was 2.32 µM; in [12], 7.06 µM.

With `COc1cc(/C=C/C(=O)O)ccc1O` [FERULATE], the Ki turned out to be 9.43 µM in assay [1]; 7.04 µM in assay [2]; 12.2 µM in assay [3]; 10.5 µM in assay [4]; 10.8 µM in assay [5]; 2.4 µM in assay [6]. For the same compound, the Ki in assay [7] was 9.78 µM; in [8], 9.87 µM; in assay [9], 11.1 µM; in assay [10] it was 7.41 µM; in [11] it was 2.89 µM; in assay [12], 8.45 µM.

Turning to `O=C(O)c1cc(O)c(O)c(O)c1` [GALLIC ACID], the Ki in assay [1] turned out to be 7.03 µM; in assay [2], 4.08 µM; in [3], 9.86 µM; in assay [4], 9.97 µM; in assay [5], 9.8 µM; in [6] it was 2.25 µM. Also, the Ki in assay [7] was 7.78 µM; in assay [8], 6.99 µM; in [9] it was 7.49 µM; in assay [10], 6.07 µM; in assay [11], 3.2 µM; in [12], 6.13 µM.

On to `O=C(O)c1ccc(O)cc1` [PARABEN], for which the Ki in [1] stood at 6.16 µM; in assay [2], 3.67 µM; in [3], 7.79 µM; in assay [5], 7.78 µM; in assay [7] it was 6.27 µM; in assay [8], 3.73 µM. Moreover, the Ki in [9] came out at 6.61 µM; in [10], 4.08 µM; in [11], 0.92 µM; in assay [12], 5.7 µM.

For the compound `O=c1c(O)c(-c2ccc(O)c(O)c2)oc2cc(O)cc(O)c12` [QUERCETIN], the Ki in assay [1] was found to be 5.41 µM; in [2], 6.81 µM; in assay [3], 9.03 µM; in [4], 11.9 µM; in [5] it was 7.89 µM; in [6], 2.54 µM. The Ki in assay [7] is 9.39 µM; in assay [8], 7 µM; in assay [9] it was 8.1 µM; in [10], 4.84 µM; in [11] it was 2.68 µM; in assay [12] it was 6.17 µM.

On to `COc1cc(C(=O)O)cc(OC)c1O` [SYRINGIC ACID], for which the Ki in assay [1] came to 9.14 µM; in assay [2] it was 6.34 µM; in assay [3], 11 µM; in assay [4], 35.4 µM; in assay [5], 10.6 µM; in assay [6], 3.19 µM. In addition, the Ki in assay [7] came out at 9.01 µM; in [8], 8.2 µM; in [9], 8.58 µM; in assay [10] it was 7.81 µM; in assay [11], 4.15 µM; in [12] it was 7.55 µM.

The term Ki denotes a measure of affinity in units of concentration, obtained from inhibition or displacement. Low values mean tighter binding, high ones weaker binding.

The values above are taken from ChEMBL document CHEMBL1157641, “Carbonic anhydrase inhibitors. Inhibition of mammalian isoforms I-XIV with a series of natural product polyphenols and phenolic acids” (Bioorg Med Chem, 2010).
